Read-outs that look alike come from different tables or passages of the source.

The values below come from publication PMC10720383, “Acetylcholinesterase Inhibition in Rats and Humans Following Acute Fenitrothion Exposure Predicted by Physiologically Based Kinetic Modeling-Facilitated Quantitative In Vitro to In Vivo Extrapolation” (Environmental Science & Technology, 2023).

The test system of one data set is CYP450s. The data set is described as follows: in vitro. Format: in vitro ADME, human. The conditions noted are these: gender-mixed. On the procedure:
In vitro incubations were performed to obtain kinetic parameters for the CYP450s-catalyzed conversion of FNT to FNO and MNP using gender-mixed rat and human liver microsomes. For the PON1-dominated detoxification of FNO to MNP, in vitro incubations were conducted with gender-mixed liver microsomes or plasma from rats and humans. Sample extraction with diisopropyl ether was performed before UPLC-PDA analysis. More details on in vitro incubations, sample extraction, UPLC-PDA analysis, and calculation of kinetic parameters are provided in the Supporting Information.
Supplementary materials and methods
Chemical and biological materials
FNT, acetylthiocholine iodide (ATC), 5,5’-dithiobis (2-nitrobenzoic acid) (DTNB), ethopropazine, tetraisopropyl pyrophosphoramide (iso-OMPA), perchloric acid (HClO4), trifluoroacetic acid (TFA), EDTA, MgCl2•6H2O, CaCl2•2H2O, NaH2PO4, Na2HPO4, Triton-X 100, Trizma® base and diisopropyl ether (DIPE) were ordered from Sigma-Aldrich (Amsterdam, The Netherlands). FNO was purchased from FUJIFILM Wako Pure Chemical Corporation (Tokyo, Japan), MNP and reduced nicotinamide adenine dinucleotide phosphate (NADPH) from Carbosynth Ltd. (Compton, UK). Acetonitrile (UPLC/MS grade), methanol (UPLC/MS grade) and ethanol (UPLC/MS grade) were ordered from Biosolve (Valkenswaard, The Netherlands). Chlorpyrifos-oxon was ordered from TRC-Canada (Toronto, Ontario, Canada). Ultrapure water was prepared using a Sartorius Arium® Pro ultrapure water system (Göttingen, Germany).
Human liver microsomes (pooled from 150 donors, mixed gender) and pooled male rat liver microsomes (Sprague-Dawley) were purchased from Corning (Amsterdam, The Netherlands). Pooled female rat liver microsomes (Sprague-Dawley) were ordered from Sigma-Aldrich (St. Louis, MO, USA). […] Human plasma (pooled from 25 donors, mixed gender) and rat plasma (Sprague-Dawley, mixed gender) were ordered from BioIVT (West Sussex, UK), and corresponding total protein concentrations were determined using BCA protein assay (Supporting Information). […]

For another data set, the system named is erythrocyte AChE. Description: Reported NOAELs from in vivo rat toxicity studies. As to the method: Acute exposure to FNT will cause neurotoxic symptoms in mammals due to AChE inhibition and subsequent acetylcholine accumulation at synaptic clefts.[10] Several no-observed-adverse-effect levels (NOAELs) derived from different in vivo rat or human toxicity data sets have been reported by different organizations, even though the same endpoint (erythrocyte AChE inhibition) was chosen. Specifically, NOAELs of 0.25 and 1.3 mg/kg BW for rats have been set by the US Environmental Protection Agency (US EPA)[11] and European Food Safety Authority (EFSA),[1] respectively, and NOAELs of 0.33 and 0.36 mg/kg BW for humans have been derived by Australian Pesticides and Veterinary Medicines Authority (APVMA)[12] and the Joint Food and Agriculture Organization of the United Nations/World Health Organization Meeting on Pesticide Residues (JMPR),[13] respectively. […]
A NOAEL of 1.3 mg/kg BW was reported by EFSA[1] from a 90 day rat study[44] considering the impaired body weight gain and reduction in erythrocyte and brain cholinesterase activity as the critical effects. The US EPA[11] reported a 5.2-fold lower NOAEL (0.25 mg/kg BW) based on the measured erythrocyte AChE inhibition after 2 weeks of FNT dosing in a 92 week rat study.[45] […]

For data set [1] the following is noted: rats, oral exposure; cited from earlier work.

One may read the Km as the substrate concentration at which the rate is half of its maximum. Consider `COP(=S)(OC)Oc1ccc([N+](=O)[O-])c(C)c1` [FNT, O,O-dimethyl O-4-nitro-m-tolyl phosphorothioate], for which the Km was determined as 21.6 µM in the data set on CYP450s (both sexes, human, pH 7.4, human liver microsomes, read-out: Km, FNT to FNO (CYP450s-catalyzed)); 4.08 µM in the data set with CYP450s (both sexes, human, pH 7.4, human liver microsomes, read-out: Km, FNT to MNP (CYP450s-catalyzed)); 4.08 µM in the data set on CYP450s (human liver microsomes, read-out: Km, FNT to MNP (CYP450s-catalyzed)). Also, in the data set on erythrocyte AChE, the “US EPA rat NOAEL, fold lower than EFSA rat NOAEL” value was determined as 5.2 fold. In addition, the “fraction of the dose absorbed (Fa)” value in data set [1] is listed as 0.9.
